Assay results from ChEMBL document CHEMBL1149638, “Synthesis of novel antitumoural analogues of dysidiolide from ent-halimic acid” (Bioorg Med Chem, 2007).

Columns and labels:
Format in all cases: functional, cell-based
HT-29 = test: Antiproliferative activity against human HT29 cells after 72 hrs by XTT assay; conditions: HT-29, 72 h
HeLa = test: Antiproliferative activity against human HeLa cells after 72 hrs by XTT assay
HL-60 = test: Antiproliferative activity against human HL60 cells after 72 hrs by XTT assay; conditions: HL-60, 72 h
A549 = test: Antiproliferative activity against human A549 cells after 72 hrs by XTT assay; conditions: A549, 72 h

Row | IC50 (HT-29) [µM] | IC50 (HeLa) [µM] | IC50 (HL-60) [µM] | IC50 (A549) [µM] | Compound
1 | 30 | 30.2 | 28.7 | 34 | C=C(C)CC[C@]1(C)C2=CCC[C@](C)(C[C@H](O)c3ccoc3)[C@H]2CC[C@H]1C
2 | 2.3 | 2.6 | 3.2 | 3.8 | C=C(C)CCC[C@]1(C)C2=CCC[C@](C)(C[C@@H](O)C3=CC(=O)OC3O)[C@H]2CC[C@H]1C (stereo not given in full)
3 | 18.7 | 26.5 | 18.7 | 28.2 | COC/C=C(\C)CC[C@]1(C)C2=C(CC[C@H]1C)C1(C)CCC2[C@@](O)(C2=CC(=O)OC2O)C1 (stereo not given in full)
4 | 4.8 | 6.7 | 3.3 | 11.1 | C=C(C)CC[C@]1(C)C2=CCC[C@](C)(C[C@@H](OC(C)=O)C3=CC(=O)OC3O)[C@H]2CC[C@H]1C (stereo not given in full)
5 | 3.2 | 4.8 | 3.2 | 4.5 | C=C(C)CC[C@]1(C)C2=CCC[C@](C)(C[C@H](O)C3=CC(=O)OC3O)[C@H]2CC[C@H]1C (stereo not given in full)
6 | 2.9 | 3.5 | 3.2 | 3.2 | C=C(C)CCC[C@]1(C)C2=CCC[C@](C)(C[C@@H](OC(C)=O)C3=CC(=O)OC3O)[C@H]2CC[C@H]1C (stereo not given in full)
7 | 2.9 | 3.1 | 0.3 | 3 | C=C(C)CCC[C@]1(C)C2=C(CC[C@H]1C)C1(C)CCC2[C@@](O)(C2=CC(=O)OC2O)C1 (stereo not given in full)
8 | 3 | 3.8 | 3 | 3.2 | C=C(C)CCC[C@]1(C)C2=CCC[C@](C)(C[C@H](O)C3=CC(=O)OC3O)[C@H]2CC[C@H]1C (stereo not given in full)
9 | 4.2 | 2.6 | 3 | 4.5 | C=C(C)CCC[C@]1(C)C2=CCC[C@](C)(C[C@H](OC(C)=O)C3=CC(=O)OC3O)[C@H]2CC[C@H]1C (stereo not given in full)
10 | 30 | 30.2 | 28.7 | 34 | C=C(C)CC[C@]1(C)C2=CCC[C@](C)(C[C@@H](O)c3ccoc3)[C@H]2CC[C@H]1C
11 | > 100 | > 100 | > 100 | > 100 | C=C(C)CCC[C@]1(C)C2=CCC[C@](C)(CC(=O)c3ccoc3)[C@H]2CC[C@H]1C
12 | 3.6 | 5.4 | 3.3 | 4.4 | C=C(C)CC[C@]1(C)C2=CCC[C@](C)(C[C@@H](O)C3=CC(=O)OC3O)[C@H]2CC[C@H]1C (stereo not given in full)
13 | 82.3 | 54.5 | 57.8 | 91 | CC(C)=CCC[C@]1(C)C2=CCC[C@](C)(CC(=O)c3ccoc3)[C@H]2CC[C@H]1C
14 | 63.1 | 59.4 | 31.2 | 66 | C=C(C)CCC[C@]1(C)C2=CCC[C@](C)(C[C@@H](O)c3ccoc3)[C@H]2CC[C@H]1C
15 | 63.1 | 59.4 | 31.2 | 66 | C=C(C)CCC[C@]1(C)C2=CCC[C@](C)(C[C@H](O)c3ccoc3)[C@H]2CC[C@H]1C
